≈ marks a conversion by molar mass, not a printed value. Calls of active or inactive are those of the source. A value given as a limit tells only on which side of the number the result lay.

Results on 32 molecules are retold here after ChEMBL document CHEMBL1140731 (J Med Chem, 2008).

Series [1] deals with Transient receptor potential cation channel subfamily V member 1 (Homo sapiens, UniProt Q8NER1). As to the kind of experiment: Blockade of human TRPV1 receptor assessed as inhibition of capsaicin-induced calcium flux. (In general: A change in cytosolic calcium serves as a functional read-out for many receptors and channels.)
The nature of series [2]: Half life in dog at 5 umol/kg, iv administered in PEG400. Type of series: ADME, organism-based, Canis lupus familiaris. The note with it: in vivo.
A short description of series [3]: Half life in monkey at 5 umol/kg, iv administered in PEG400. The series is classed as ADME, organism-based, Macaca mulatta. Particulars: rhesus monkey, in vivo.
Series [4] is described as follows: Aqueous solubility at pH 6.8. The series is classed as physicochemical. Particulars: buffer.
Series [5] can be described thus: Volume of distribution beta in dog at 5 umol/kg, iv administered in PEG400. Type of series: ADME, organism-based, Canis lupus familiaris. The note with it: in vivo, read-out: Vbeta.
A short description of series [6]: Oral bioavailability in dog at 5 umol/kg administered in oleic acid/cremophor/PEG400 (80:10:10). Particulars: in vivo.
Series [7] can be described thus: Half life in rat at 10 umol/kg, iv administered in PEG400. The series is classed as ADME, organism-based. Particulars: in vivo.
Series [8] can be described thus: Oral bioavailability in dog at 5 umol/kg administered in PEG400. Particulars: in vivo.
Series [9] can be described thus: Cmax in dog at 5 umol/kg, po administered in PEG400. The note with it: in vivo.
The nature of series [10]: Cmax in dog at 5 umol/kg, po administered in oleic acid/cremophor/PEG400 (80:10:10). The note with it: in vivo.
The nature of series [11]: Oral bioavailability in rat at 10 umol/kg administered in PEG400. Type of series: ADME, organism-based. Particulars: in vivo.
The nature of series [12]: Oral bioavailability in monkey at 10 umol/kg administered in PEG400. The series is classed as ADME, organism-based, Macaca mulatta. The note with it: rhesus monkey, in vivo.
A short description of series [13]: Cmax in rat at 10 umol/kg, po administered in PEG400. The series is classed as ADME, organism-based. Also noted: dose 10 umol/kg, route oral. Particulars: in vivo.
The nature of series [14]: Volume of distribution beta in rat at 10 umol/kg, iv administered in PEG400. The series is classed as ADME, organism-based. The note with it: in vivo, read-out: Vbeta.
For series [15], the species on record is Rattus norvegicus. As to the kind of experiment: Decrease in carrageenan-induced thermal hyperalgesia in Sprague-Dawley rat. Type of series: functional.
A short description of series [16]: Permeability across human Caco-2 cells. The series is classed as ADME, cell-based. For orientation: Caco-2 cells form a polarised layer with tight junctions and transporters.
The test system of series [17] is Rattus norvegicus. Briefly: Decrease in carrageenan-induced thermal hyperalgesia in Sprague-Dawley rat at 100 umol/kg. The series is classed as functional, organism-based.
Series [18] is described as follows: Aqueous solubility at pH 1. Particulars: buffer. The series is classed as physicochemical.
Series [19] can be described thus: Cmax in monkey at 10 umol/kg, po administered in PEG400. The series is classed as ADME, organism-based, Macaca mulatta. Details: dose 10 umol/kg, route oral. The note with it: rhesus monkey, in vivo.
Series [20] can be described thus: Ratio of drug level in brain to plasma in Sprague-Dawley rat. Type of series: ADME. Particulars: read-out: BPR.
Series [21] is described as follows: Volume of distribution beta in monkey at 5 umol/kg, iv administered in PEG400. Particulars: rhesus monkey, in vivo, read-out: Vbeta. The series is classed as ADME, organism-based, Macaca mulatta.

Chain of Transient receptor potential cation channel subfamily V member 1 (Q8NER1 whole entry): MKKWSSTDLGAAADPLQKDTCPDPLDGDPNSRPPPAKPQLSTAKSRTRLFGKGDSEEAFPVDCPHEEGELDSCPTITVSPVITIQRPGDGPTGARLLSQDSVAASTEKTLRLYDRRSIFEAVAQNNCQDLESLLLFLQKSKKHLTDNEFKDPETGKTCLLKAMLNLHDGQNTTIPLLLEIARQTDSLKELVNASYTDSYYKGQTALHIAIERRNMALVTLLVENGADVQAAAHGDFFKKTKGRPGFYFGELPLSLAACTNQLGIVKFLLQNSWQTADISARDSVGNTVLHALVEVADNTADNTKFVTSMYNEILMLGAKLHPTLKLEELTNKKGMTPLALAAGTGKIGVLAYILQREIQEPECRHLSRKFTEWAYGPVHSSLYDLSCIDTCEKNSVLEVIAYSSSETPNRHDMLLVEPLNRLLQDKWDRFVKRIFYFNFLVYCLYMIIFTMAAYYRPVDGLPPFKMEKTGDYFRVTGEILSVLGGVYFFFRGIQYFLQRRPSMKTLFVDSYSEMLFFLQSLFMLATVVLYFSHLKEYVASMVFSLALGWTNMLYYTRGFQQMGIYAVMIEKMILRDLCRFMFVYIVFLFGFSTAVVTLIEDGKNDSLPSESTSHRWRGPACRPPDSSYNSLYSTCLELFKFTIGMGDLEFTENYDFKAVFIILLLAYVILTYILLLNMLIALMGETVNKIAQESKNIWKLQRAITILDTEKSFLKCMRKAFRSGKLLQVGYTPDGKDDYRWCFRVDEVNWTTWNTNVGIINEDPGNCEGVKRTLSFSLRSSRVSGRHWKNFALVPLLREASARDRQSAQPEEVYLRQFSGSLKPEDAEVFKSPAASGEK

Broadly, the IC50 is the point on the concentration scale where inhibition reaches its midpoint. Regarding `CC(C)(C)c1cccc2c1CCC2NC(=O)Nc1cccc2[nH]ncc12` (stereo unspecified), in [1], the half-inhibitory concentration (IC50) was found to be 14 nM.
The same measure, in the same setting: the result for `O=C(Nc1cccc2[nH]ncc12)NC1CCc2cc(C(F)(F)F)ccc21` (stereo unspecified) reads 3 nM; that for `O=C(Nc1cccc2[nH]ncc12)NC1CCc2cc(Br)ccc21` (stereo unspecified), 9 nM.
The same measure, in the same setting: then `O=C(Nc1cccc2[nH]ncc12)NC1CCc2cc(N3CCCCC3)ccc21` (stereo unspecified), with 14 nM; and `COc1ccc2c(c1)CCC2NC(=O)Nc1cccc2[nH]ncc12` (stereo unspecified), with 40 nM.
On the same count and under the same terms, the result for `CC(C)(C#N)c1cccc2c1CCC2NC(=O)Nc1cccc2[nH]ncc12` (stereo unspecified) reads 19 nM; that for `O=C(Nc1cccc2[nH]ncc12)NC1CCc2c(C3CC3)cccc21` (stereo unspecified), 5 nM; that for `CC(C)(C)c1ccc2c(c1)CC(NC(=O)Nc1cccc3[nH]ncc13)C2` (stereo unspecified), 10 nM.
For `CC(C)(C)c1ccc2c(c1)CC(F)(F)C2NC(=O)Nc1cccc2[nH]ncc12` (stereo unspecified), in series [1], the IC50 was 216 nM.
On the same count and under the same terms, the result for `CC(C)(C)c1ccc2c(c1)CC[C@H]2NC(=S)Nc1cccc2[nH]ncc12` reads 97 nM; that for `O=C(Nc1cccc2[nH]ncc12)NC1CCOc2cc(C(F)(F)F)ccc21` (stereo unspecified), 11 nM; that for `O=C(Nc1cccc2[nH]ncc12)NC1CCc2c1cccc2N1CCCC1` (stereo unspecified), 21 nM.
Same read-out and setting: then `O=C(Nc1cccc2[nH]ncc12)NC1CCc2ccccc21` (stereo unspecified), with 151 nM; and `Cc1ccc2c(c1)C(NC(=O)Nc1cccc3[nH]ncc13)CC2` (stereo unspecified), with 7200 nM.
Regarding `O=C(Nc1cccc2[nH]ncc12)NC1CCc2cccnc21` (stereo unspecified), in [1], the half-inhibitory concentration (IC50) was 1350 nM.
The same measure, in the same setting: then `Cc1ccc2c(c1)CCC2NC(=O)Nc1cccc2[nH]ncc12` (stereo unspecified), with 11 nM; and `O=C(Nc1cccc2[nH]ncc12)NC1CCc2c1cccc2C(F)(F)F` (stereo unspecified), with 10 nM; and `O=C(Nc1cccc2[nH]ncc12)NC1CCc2ncccc21` (stereo unspecified), with 5820 nM.
The same measure, in the same setting: then `O=C(Nc1cccc2[nH]ncc12)NC1CCc2c1ccc(F)c2N1CCOCC1` (stereo unspecified), with 5 nM.
Regarding `CC(C)(C)c1ccc2c(c1)CC[C@H]2N/C(=N/C#N)Nc1cccc2[nH]ncc12`, the IC50 in series [1] amounted to 34 nM.
The same measure, in the same setting: the result for `O=C(Nc1cccc2[nH]ncc12)NC1CCc2cc(F)ccc21` (stereo unspecified) reads 52 nM.
On the same count and under the same terms, then `CC(C)(C)c1ccc2c(c1)CC(F)C2NC(=O)Nc1cccc2[nH]ncc12` (stereo unspecified), with 35 nM; and `Cc1cccc2c1CCC2NC(=O)Nc1cccc2[nH]ncc12` (stereo unspecified), with 46 nM.
Same read-out and setting: then `O=C(Nc1cccc2[nH]ncc12)NC1CCc2c1cccc2N1CCCCC1` (stereo unspecified), with 10 nM; and `O=C(Nc1cccc2[nH]ncc12)NC1CCc2cc(Cl)ccc21` (stereo unspecified), with 10 nM.
In the case of `CC(C)(CO)c1ccc2c(c1)CC[C@H]2NC(=O)Nc1cccc2[nH]ncc12`, the half-maximal inhibitory concentration (IC50) in series [1] worked out at 127 nM.
Same read-out and setting: the result for `O=C(Nc1cccc2[nH]ncc12)NC1CCc2c1cccc2N1CCC(C(F)(F)F)CC1` (stereo unspecified) reads 7 nM; that for `Cc1cccc2c1C(NC(=O)Nc1cccc3[nH]ncc13)CC2` (stereo unspecified), 595 nM.
One may read the half-life as the time needed for the level to fall by half in the phase considered. The Solubility is the concentration that dissolves in the medium under given conditions. What is called bioavailability is dose-corrected exposure relative to a reference, in per cent. As a reminder, the Cmax is the peak of the concentration-time curve. One may read the ED50 as the dose that gives a 50% effect, or the effect in half of the subjects. In general, Papp refers to the rate of passage across a membrane or cell layer, normalised by area and donor concentration. For `CC(C)(C)c1ccc2c(c1)CC[C@H]2NC(=O)Nc1cccc2[nH]ncc12` [ABT-102], the values for the half-life in series [2], in series [3] and in series [7] were 1.8 h, 1.9 h and 1.7 h, respectively. Moreover, the Solubility in series [4] is 0.0573 µg/mL (≈ 0.164 µM); in series [18] it was 0.102 µg/mL (≈ 0.293 µM). The Vd in series [5] stood at 1.6 L/kg; in series [14], 2.8 L/kg; in series [21], 1.7 L/kg. The bioavailability in series [6] was 60%; in series [8], 22%; in series [11], 70%; in series [12] it was 25%. For the same molecule, the highest concentration (Cmax) in series [9] is 390 ng/mL; in [10] it was 650 ng/mL; in series [13] it was 250 ng/mL; in series [19], 310 ng/mL. In the series listed under Rattus norvegicus [15], this molecule yielded a 50% effective dose (ED50) of 20 µmol/kg. Further, the Papp in series [16] was over 18 ×10⁻⁶ cm/s. Further, in the series on Rattus norvegicus [17], the outcome was Active. Also, the Kp in series [20] was determined as 0.32.
For the molecule `O=C(Nc1cccc2[nH]ncc12)NC1CCc2cc(C3CC3)ccc21` (stereo unspecified), the IC50 in series [1] was 4 nM.
On the same count and under the same terms, then `O=C(Nc1cccc2[nH]ncc12)NC1CCc2c1cccc2N1CCOCC1` (stereo unspecified), with 65 nM; and `CN1CCC(NC(=O)Nc2cccc3[nH]ncc23)c2ccc(C(F)(F)F)cc21` (stereo unspecified), with 7 nM.
